Key:
[1] = tested on: endogenous Tau in human neuroblastoma SHSY-5Y cells; experiment: Tau levels by immunoblotting in SHSY-5Y cells; assay type: cell-based; conditions: 5 μM and 10 μM, 24 hours, immunoblot
Experimental: (§1) Endogenous Tau expressing human neuroblastoma SHSY5Y cells and Hela cells stably overexpressing wild-type human tau were maintained in OptiMEM media supplemented with fetal bovine serum and antibiotic solution as described previously. In six-well plates, cells were treated with control or MB-NPs for 24 hours. Cells were harvested and processed for immunoblotting as described previously.
(§2) To test the functionality of newly generated NPs, two different cell culture-based AD models were utilized. Endogenously tau expressing SHSHY neuronal cells and stably tau overexpressing HeLa cells were treated with 5 μM and 10 μM of MB-NPs, coated MB-NPs, control NPs, vehicle, and/or drug MB-solution for 24 hours. Cells were harvested, and samples were analyzed for tau levels by immunoblotting (FIG. 4).

[2] = tested on: co-culture of rat brain endothelial 4 (RBE4) and C6 astrocytoma cells; experiment: In vitro blood-brain barrier Transwell permeation assay; assay type: in vitro ADME; conditions: 10 μM, 0, 3, 6 and 24 hours, UV 600 nm, n=3
Experimental: Transwell Permeable Supports (CORNING) with a 0.4 μm pore size were purchased to investigate the permeability of MB nanoparticles across the blood-brain barrier (BBB) (FIG. 5). Each side was coated with 0.1% rat tail collagen I solution diluted from the purchased 100 mg solution (Collagen I, rat tail, 100 mg, BD BIOSCIENCES), left under the hood to adhere to the support for 1 hour, and washed with […] of 1×PBS after aspiration of the remaining collagen solution. The media used was a 1:1 solution of Ham's F10:MEM media (CELLGRO) supplemented with 10% fetal bovine serum (FBS) (INVITROGEN), 1% penicillin and streptomycin (CELLGRO), 0.4 mL of 1 ng/mL human recombinant diluted basic fibroblast growth factor (bFGF) (BD Biosciences), 5 mL of HEPES buffer (FISHER), and 2 mL of a 200 mM stock of L-glutamine (MEDIATECH). 1.5 mL of media was added surrounding the support, and 0.5 mL was added inside the support. This was left to incubate in the incubator (37° C. and 5% CO2) for 24 hours.
After 24 hours, the media was aspirated from the plates. […]
Subsequently, the media was aspirated and replaced with equal amounts of 1% FBS experimental media. […] The samples were quantified by UV spectrometry in the SYNERGY H4 plate reader (BIOTEK INSTRUMENTS Inc.) at a wavelength of 600 nm. Data was quantified in triplicates and averaged (n=3).

[3] = tested on: human Tau stably over-expressed in HeLa cells; experiment: Tau levels by immunoblotting in HeLa cells overexpressing tau; assay type: cell-based; conditions: HeLa cells over-expressing tau, 5 μM and 10 μM, 24 hours, immunoblot
Experimental: as §1, §2

Permeation across simulated BBB (in words) [2]: remained relatively constant
Structure (SMILES): CN(C)c1ccc2nc3ccc(=[N+](C)C)cc-3sc2c1 [MB solution, Methylene blue]
Reduction in tau level (in words) [1]: reduce tau levels slightly higher at 10 μM compared to 5 μM
Reduction in tau level (in words) [3]: reduce tau levels slightly higher at 10 μM compared to 5 μM
